Data published in US7476673B2, “Disubstituted chalcone oximes as selective agonists of RARγ retinoid receptors” (Allergan, Inc., priority 2003, dated 2009).

What was measured:
RARγ [1] = assay: chimeric receptor transactivation assay, RARγ; format: cell-based; details: judged from Table 1 data, versus RARα and RARβ
Method: (§1) The compounds of the invention were tested in certain assays for activity as agonists of RAR and RXR retinoid receptors. Specifically, one such assay is a chimeric receptor transactivation assay which tests for agonist-like activity in the RARα, RARβ and RARγ receptor subtypes, and which is based on work published by Feigner P. L. and Holm M. (1989) Focus, 112 is described in detail in U.S. Pat. No. 5,455,265. The specification of U.S. Pat. No. 5,455,265 is hereby expressly incorporated by reference.
(§2) A holoreceptor transactivation assay and a ligand binding assay which measure the antagonist/agonist like activity of the compounds of the invention, or their ability to bind to the several retinoid receptor subtypes, respectively, are described in published PCT Application No. WO WO93/11755 (particularly on pages 30-33 and 37-41) published on Jun. 24, 1993, the specification of which is also incorporated herein by reference. A detailed experimental procedure for holoreceptor transactivations has been described by Heyman et al. Cell 68, 397-406, (1992); Allegretto et al. J. Biol. Chem. 268, 26625-26633, and Mangelsdorf et al. The Retinoids: Biology, Chemistry and Medicine, pp 319-349, Raven Press Ltd., New York, which are expressly incorporated herein by reference. The results obtained in this assay are expressed in EC50 numbers, as they are also in the chimeric receptor transactivation assay. The results of the ligand binding assay are expressed in Ki numbers. (See Cheng et al. Biochemical Pharmacology Vol. 22 pp 3099-3108, expressly incorporated herein by reference.)
(§3) Efficacy in a transactivation assay is expressed as a percentage of the maximum potency attained by the compound compared to a standard which, in this case, is the compound 4-[(1E)-2-(5,6,7,8-tetrahydro-5,5,8,8-tetramethyl-2-naphthalenyl)-1-propenyl]-benzoic acid. (TTNPB) This standard compound is described in PCT Publication WO 2002077169 A2.
(§4) Table 1 discloses the activity of certain exemplary compounds of the invention in the above-described chimeric RAR receptor transactivation and binding assays.

RARγ [2] = target: T1, RARγ (Homo sapiens, UniProt P13631); assay: chimeric receptor transactivation assay, RARγ; format: cell-based; details: for EC50: chimeric receptor transactivation, read-out: RAR EC50 γ; for % Efficiency γ: percentage of maximum compared to standard TTNPB
T1 construct: % Efficiency γ; other: percentage of maximum compared to standard TTNPB
T1 sequence (P13631 185-454 limits assumed): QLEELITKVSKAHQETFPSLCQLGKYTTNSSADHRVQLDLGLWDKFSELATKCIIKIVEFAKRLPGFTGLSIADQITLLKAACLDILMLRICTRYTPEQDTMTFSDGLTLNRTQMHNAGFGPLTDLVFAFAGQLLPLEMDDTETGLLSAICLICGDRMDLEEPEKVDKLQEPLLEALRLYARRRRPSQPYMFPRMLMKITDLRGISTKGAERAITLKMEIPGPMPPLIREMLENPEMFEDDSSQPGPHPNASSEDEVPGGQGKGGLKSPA
Method: as §1, §2, §3, §4

RARγ [3] = target: T2, RARγ (Homo sapiens, UniProt P13631); assay: ligand binding assay, RARγ; details: results expressed in Ki numbers, read-out: RAR Binding γ
T2 sequence (P13631 1-454): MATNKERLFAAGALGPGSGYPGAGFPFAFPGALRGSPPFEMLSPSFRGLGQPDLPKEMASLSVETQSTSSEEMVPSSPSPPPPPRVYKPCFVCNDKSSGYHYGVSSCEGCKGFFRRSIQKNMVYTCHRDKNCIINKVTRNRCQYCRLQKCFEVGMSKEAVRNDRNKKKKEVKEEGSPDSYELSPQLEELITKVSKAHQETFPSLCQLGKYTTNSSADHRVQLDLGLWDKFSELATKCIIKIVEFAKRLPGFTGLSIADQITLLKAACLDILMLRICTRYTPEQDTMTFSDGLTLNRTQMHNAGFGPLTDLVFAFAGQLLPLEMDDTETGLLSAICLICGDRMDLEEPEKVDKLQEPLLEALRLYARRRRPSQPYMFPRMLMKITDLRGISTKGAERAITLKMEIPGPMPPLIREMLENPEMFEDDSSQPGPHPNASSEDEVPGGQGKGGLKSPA
Source text: as §2, §4

RARβ [4] = target: T3, RARβ (Homo sapiens, UniProt P10826); assay: chimeric receptor transactivation assay, RARβ; format: cell-based; details: for EC50: chimeric receptor transactivation, read-out: RAR EC50 β; for % Efficiency β: percentage of maximum compared to standard TTNPB
T3 sequence (P10826 183-455 limits assumed): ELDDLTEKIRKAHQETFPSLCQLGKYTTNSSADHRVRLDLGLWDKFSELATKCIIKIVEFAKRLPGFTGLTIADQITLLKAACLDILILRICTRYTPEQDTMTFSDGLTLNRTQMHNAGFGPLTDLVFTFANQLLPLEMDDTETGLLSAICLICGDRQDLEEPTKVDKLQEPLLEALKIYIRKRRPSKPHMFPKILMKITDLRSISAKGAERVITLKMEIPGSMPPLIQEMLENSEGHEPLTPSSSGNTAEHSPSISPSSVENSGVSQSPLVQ
Method: as §1, §2, §3, §4

RARα [5] = target: T4, RARα (Homo sapiens, UniProt P10276); assay: ligand binding assay, RARα; details: results expressed in Ki numbers, read-out: RAR Binding α
T4 sequence (P10276 1-462): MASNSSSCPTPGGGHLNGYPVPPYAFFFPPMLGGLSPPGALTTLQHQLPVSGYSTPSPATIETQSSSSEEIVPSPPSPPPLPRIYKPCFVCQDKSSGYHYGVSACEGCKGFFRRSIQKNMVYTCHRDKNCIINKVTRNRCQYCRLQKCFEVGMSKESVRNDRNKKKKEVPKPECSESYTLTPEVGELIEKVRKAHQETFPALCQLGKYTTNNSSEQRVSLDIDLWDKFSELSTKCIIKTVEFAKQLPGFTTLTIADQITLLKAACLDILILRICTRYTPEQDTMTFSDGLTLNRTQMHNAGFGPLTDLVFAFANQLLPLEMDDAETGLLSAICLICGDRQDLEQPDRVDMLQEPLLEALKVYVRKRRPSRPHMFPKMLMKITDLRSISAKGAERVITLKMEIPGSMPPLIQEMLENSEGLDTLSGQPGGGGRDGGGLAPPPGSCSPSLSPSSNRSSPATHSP
Source text: as §2, §4

RARα [6] = target: T5, RARα (Homo sapiens, UniProt P10276); assay: chimeric receptor transactivation assay, RARα; format: cell-based; details: for EC50: chimeric receptor transactivation, read-out: RAR EC50 α; for % Efficiency α: percentage of maximum compared to standard TTNPB
T5 sequence (P10276 183-417 limits assumed): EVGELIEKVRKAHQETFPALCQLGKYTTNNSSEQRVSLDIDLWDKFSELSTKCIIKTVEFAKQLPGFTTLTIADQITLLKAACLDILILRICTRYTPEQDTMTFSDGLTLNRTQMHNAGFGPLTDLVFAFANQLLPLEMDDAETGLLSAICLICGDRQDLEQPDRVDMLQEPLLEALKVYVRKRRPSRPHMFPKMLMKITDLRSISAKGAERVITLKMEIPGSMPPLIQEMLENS
Method: as §1, §2, §3, §4

RARβ [7] = target: T6, RARβ (Homo sapiens, UniProt P10826); assay: ligand binding assay, RARβ; details: results expressed in Ki numbers, read-out: RAR Binding β
T6 sequence (P10826 1-455): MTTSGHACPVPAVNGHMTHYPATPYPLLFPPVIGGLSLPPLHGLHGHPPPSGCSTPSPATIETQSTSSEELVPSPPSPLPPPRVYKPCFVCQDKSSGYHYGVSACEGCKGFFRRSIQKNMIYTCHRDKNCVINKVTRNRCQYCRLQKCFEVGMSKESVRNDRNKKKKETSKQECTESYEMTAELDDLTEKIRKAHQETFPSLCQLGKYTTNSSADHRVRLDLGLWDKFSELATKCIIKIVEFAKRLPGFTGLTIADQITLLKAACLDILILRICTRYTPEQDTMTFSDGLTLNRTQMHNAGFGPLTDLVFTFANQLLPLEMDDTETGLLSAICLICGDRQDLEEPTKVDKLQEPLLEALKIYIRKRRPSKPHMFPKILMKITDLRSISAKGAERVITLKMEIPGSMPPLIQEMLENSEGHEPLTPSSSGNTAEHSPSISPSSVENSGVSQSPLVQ
Source text: as §2, §4

Row | Structure (SMILES) | selectivity to the RARγ receptors (RARγ [1]) | EC50 (RARγ [2]) | % Efficiency γ (RARγ [2]) | Ki (RARγ [3]) | EC50 (RARβ [4]) | % Efficiency β (RARβ [4]) | Ki (RARα [5]) | EC50 (RARα [6]) | % Efficiency α (RARα [6]) | Ki (RARβ [7])
1 | COc1cc2c(cc1C(/C=C\c1ccc(C(=O)O)cc1)=NO)C(C)(C)CCC2(C)C [Compound 13b, Z-4-[3-hydroxyimino-3-(3-methoxy-5,5,8,8-tetramethyl-5,6,7,8-tetrahydro-naphthalen-2-yl)-propenyl]-benzoic acid] | less selective | – | – | – | – | – | – | – | – | –
2 | Cc1cc2c(cc1C(/C=C/c1ccc(C(=O)O)cc1)=NO)C(C)(C)CCC2(C)C [Compound 9a, E-4-[3-Hydroxyimino-3-(3,5,5,8,8-pentamethyl-5.6,7,8-tetrahydro-naphthalen-2-yl)-propenyl]-benzoic acid] | less selective | – | – | – | – | – | – | – | – | –
3 | CC1(C)CC(C)(C)c2cc(C(C=Cc3ccc(C(=O)O)cc3)=NO)ccc2O1 [drawing 25] | – | 57 nM | 95% | 10000 nM | 93 nM | 97% | 5000 nM | 135 nM | 60% | 5000 nM
4 | CC1(C)CCC(C)(C)c2cc(C(C=Cc3ccc(C(=O)O)cc3)=NO)ccc21 [drawing 9] | – | 0.37 nM | 114% | 14 nM | 34 nM | 112% | 2400 nM | 150 nM | 81% | 2000 nM
5 | CC1=CCC(C)(C)c2cc(C(/C=C/c3ccc(C(=O)O)cc3F)=N/O)ccc21 | – | 2 nM | 92% | 256 nM | 168 nM | 86% | 7000 nM | > 1000 nM | – | 11000 nM
6 | CC1(C)CCC(C)(C)c2cc(C(C=Cc3ccc(C(=O)O)cc3F)=NO)ccc21 [drawing 10] | – | 0.11 nM | 84% | 4 nM | 53 nM | 84% | 8000 nM | > 1000 nM | – | 5000 nM
7 | CC1(C)CCSc2ccc(C(C=Cc3ccc(C(=O)O)cc3)=NO)cc21 [drawing 20] | – | 15 nM | 100% | 55 nM | 103 nM | 102% | 4500 nM | > 1000 nM | – | 1230 nM
8 | CC1(C)CC(C)(C)c2cc(C(C=Cc3ccc(C(=O)O)cc3F)=NO)ccc21 | – | 1 nM | 72% | 25 nM | 114 nM | 79% | 14000 nM | > 1000 nM | – | 25000 nM
9 | Cc1cc2c(cc1C(C=Cc1ccc(C(=O)O)cc1)=NO)C(C)(C)CCC2(C)C [drawing 37] | – | 35 nM | 67% | 1850 nM | 157 nM | 14% | 8000 nM | > 1000 nM | – | 28000 nM
10 | CC1(C)CCC(C)(C)c2cc(C(C=Cc3ccc(C(=O)O)cc3F)=NO)ccc21 [drawing 11] | – | 0.85 nM | 76% | 34 nM | 118 nM | 85% | 8000 nM | > 1000 nM | – | 8000 nM
11 | CC1(C)CCC(C)(C)c2cc(C(C=Cc3ccc(C(=O)O)cc3)=NO)ccc21 [drawing 8] | – | 0.09 nM | 103% | 3 nM | 31 nM | 102% | 2500 nM | 441 nM | 81% | 1300 nM
12 | CC1(C)CC(C)(C)c2cc(C(/C=C/c3ccc(C(=O)O)cc3F)=N\O)ccc21 | – | 9 nM | 79% | 264 nM | 249 nM | 82% | 13000 nM | > 1000 nM | – | 27000 nM
